System: human C3A liver cells
Assay: Microarray differential gene expression in human C3A liver cell cultures treated with steroids
Type: cell-based
Text: Incyte clones represent template sequences derived from the LWESEQ GOLD assembled human sequence database (Incyte Genomics). In cases where more than one clone was available for a particular template, the 5′-most clone in the template was used on the microarray. The HUMAN GENOME GEM series 1-4 microarrays (Incyte Genomics) contain 28,626 array elements which represent 10,068 annotated clusters and 18,558 unannotated clusters. For the UNIGEM series microarrays (Incyte Genomics), Incyte clones were mapped to non-redundant Unigene clusters (Unigene database (build 46), NCBI; Shuler (1997) J Mol Med 75:694-698), and the 5′ clone with the strongest BLAST alignment (at least 90% identity and 100 bp overlap) was chosen, verified, and used in the construction of the microarray. The UNIGEM V microarray (Incyte Genomics) contains 7075 array elements which represent 4610 annotated genes and 2,184 unannotated clusters.
To construct microarrays, cDNAs were amplified from bacterial cells using primers complementary to vector sequences flanking the cDNA insert. […] Amplified cDNAs were then purified using […]-400 columns (APB). Purified cDNAs were immobilized on polymer-coated glass slides. Glass microscope slides (Corning, Corning N.Y.) were cleaned by ultrasound in 0.1% SDS and acetone, with extensive distilled water washes between and after treatments. Glass slides were etched in 4% hydrofluoric acid (VWR Scientific Products, West Chester Pa.), washed thoroughly in distilled water, and coated with 0.05% aminopropyl silane (Sigma Aldrich) in 95% ethanol. Coated slides were cured in a 110° C. oven. cDNAs were applied to the coated glass substrate using a procedure described in U.S. Pat. No. 5,807,522. One microliter of the cDNA at an average concentration of 100 ng/μl was loaded into the open capillary printing element by a high-speed robotic apparatus which then deposited about 5 nl of cDNA per slide.
Microarrays were UV-crosslinked using a […] UV-crosslinker (Stratagene), and then washed at room temperature once in 0.2% SDS and three times in distilled water. Non-specific binding sites were blocked by incubation of microarrays in 0.2% casein in phosphate buffered saline (Tropix, Bedford Mich.) for 30 minutes at 60° C. followed by washes in 0.2% SDS and distilled water as before.
In all cases, mRNA from untreated early confluent C3A cells were prepared in parallel as described below.
Cells were harvested and lysed in 1 ml of TRIZOL reagent (5×10^6 cells/ml; Life Technologies). Lysates were vortexed thoroughly, incubated at room temperature for 2-3 minutes, and extracted with 0.5 ml chloroform. The extract was mixed, incubated at room temperature for 5 minutes, and centrifuged at 15,000 rpm for 15 minutes at 4° C. The aqueous layer was collected, and an equal volume of isopropanol was added. Samples were mixed, incubated at room temperature for 10 minutes, and centrifuged at 15,000 rpm for 20 minutes at 4° C. The supernatant was removed, and the RNA pellet was washed with 1 ml of 70% ethanol, centrifuged at 15,000 rpm at 4° C., and resuspended in RNAse-free water. The concentration of the RNA was determined by measuring the optical density at 260 nm.
Poly(A) RNA was prepared using an OLIGOTEX mRNA kit (Qiagen) with the following modifications: OLIGOTEX beads were washed in tubes instead of on spin columns, resuspended in elution buffer, and then loaded onto spin columns to recover mRNA. To obtain maximum yield, the mRNA was eluted twice.
Each poly(A) RNA sample was reverse transcribed using MMLV reverse-transcriptase, 0.05 pg/μl oligo-d(T) primer (21mer), 1× first strand buffer, 0.03 units/ul RNAse inhibitor, 500 uM dATP, 500 uM dGTP, 500 uM dTTP, 40 uM dCTP, and 40 uM either dCTP-Cy3 or dCTP-Cy5 (APB).

SMILES: C[C@@H]1C[C@H]2[C@@H]3CCC4=CC(=O)C=C[C@]4(C)[C@@]3(F)[C@@H](O)C[C@]2(C)[C@@]1(O)C(=O)CO [dexamethasane]
- Ave DE [log2] (C3A treated with steroid) (Clone ID 2253102): −1.20 log2

SMILES: C[C@]12C=CC(=O)C=C1CC[C@@H]1[C@@H]2C(=O)C[C@@]2(C)[C@H]1CC[C@]2(O)C(=O)CO [prednisone]
- Ave DE [log2] (C3A treated with steroid) (Clone ID 998615): 0.91 log2
- Ave DE [log2] (C3A treated with steroid) (Clone ID 1329625): 0.42 log2
- Ave DE [log2] (C3A treated with steroid) (Clone ID 1401312): −0.82 log2
- Ave DE [log2] (C3A treated with steroid) (Clone ID 1496011): 0.51 log2
- Ave DE [log2] (C3A treated with steroid) (Clone ID 1611629): 0.94 log2
- Ave DE [log2] (C3A treated with steroid) (Clone ID 1679595): 0.99 log2
- Ave DE [log2] (C3A treated with steroid) (Clone ID 1716458): 1.03 log2
- Ave DE [log2] (C3A treated with steroid) (Clone ID 1740179): 0.86 log2
- Ave DE [log2] (C3A treated with steroid) (Clone ID 1946155): 0.92 log2
- Ave DE [log2] (C3A treated with steroid) (Clone ID 1951845): 0.79 log2
- Ave DE [log2] (C3A treated with steroid) (Clone ID 2086783): −1.13 log2
- Ave DE [log2] (C3A treated with steroid) (Clone ID 2088104): −1.15 log2
- Ave DE [log2] (C3A treated with steroid) (Clone ID 2095329): −1.21 log2
- Ave DE [log2] (C3A treated with steroid) (Clone ID 2227273): 1.01 log2
- Ave DE [log2] (C3A treated with steroid) (Clone ID 2252884): −1.03 log2
- Ave DE [log2] (C3A treated with steroid) (Clone ID 2253102): −1.13 log2
- Ave DE [log2] (C3A treated with steroid) (Clone ID 2269058): −1.06 log2
- Ave DE [log2] (C3A treated with steroid) (Clone ID 2285521): −1.09 log2
- Ave DE [log2] (C3A treated with steroid) (Clone ID 2287703): −1.07 log2
- Ave DE [log2] (C3A treated with steroid) (Clone ID 2430165): 0.23 log2
- Ave DE [log2] (C3A treated with steroid) (Clone ID 2607834): 0.29 log2
- Ave DE [log2] (C3A treated with steroid) (Clone ID 2698777): −1.25 log2
- Ave DE [log2] (C3A treated with steroid) (Clone ID 2734007): 0.88 log2
- Ave DE [log2] (C3A treated with steroid) (Clone ID 2908212): 0.42 log2
- Ave DE [log2] (C3A treated with steroid) (Clone ID 3960194): 1.01 log2
- Ave DE [log2] (C3A treated with steroid) (Clone ID 4252872): 0.77 log2
- Ave DE [log2] (C3A treated with steroid) (Clone ID 4543123): 1.27 log2
- Ave DE [log2] (C3A treated with steroid) (Clone ID 4630674): 0.86 log2
- Ave DE [log2] (C3A treated with steroid) (Clone ID 4894508): −1.03 log2
- Ave DE [log2] (C3A treated with steroid) (Clone ID 5102951): 0.85 log2
- Ave DE [log2] (C3A treated with steroid) (Clone ID 5326983): 0.50 log2
- Ave DE [log2] (C3A treated with steroid) (Clone ID 5543385): 1.00 log2

SMILES: C[C@@H]1C[C@H]2[C@@H]3CCC4=CC(=O)C=C[C@]4(C)[C@@]3(F)[C@@H](O)C[C@]2(C)[C@@]1(O)C(=O)CO [dexamethasone]
- Ave DE [log2] (C3A treated with steroid) (Clone ID 167081): −1.10 log2
- Ave DE [log2] (C3A treated with steroid) (Clone ID 220378): 0.39 log2
- Ave DE [log2] (C3A treated with steroid) (Clone ID 380006): −0.98 log2
- Ave DE [log2] (C3A treated with steroid) (Clone ID 419492): 1.08 log2
- Ave DE [log2] (C3A treated with steroid) (Clone ID 494905): 0.75 log2
- Ave DE [log2] (C3A treated with steroid) (Clone ID 508943): −1.26 log2
- Ave DE [log2] (C3A treated with steroid) (Clone ID 869702): 0.55 log2
- Ave DE [log2] (C3A treated with steroid) (Clone ID 1259841): 0.84 log2
- Ave DE [log2] (C3A treated with steroid) (Clone ID 1275616): 0.97 log2
- Ave DE [log2] (C3A treated with steroid) (Clone ID 1323616): 0.89 log2
- Ave DE [log2] (C3A treated with steroid) (Clone ID 1500810): −0.70 log2
- Ave DE [log2] (C3A treated with steroid) (Clone ID 1501410): −1.16 log2
- Ave DE [log2] (C3A treated with steroid) (Clone ID 1573840): 0.86 log2
- Ave DE [log2] (C3A treated with steroid) (Clone ID 1823946): −1.20 log2
- Ave DE [log2] (C3A treated with steroid) (Clone ID 1857664): −0.71 log2
- Ave DE [log2] (C3A treated with steroid) (Clone ID 1876829): −0.94 log2
- Ave DE [log2] (C3A treated with steroid) (Clone ID 1930847): −0.67 log2
- Ave DE [log2] (C3A treated with steroid) (Clone ID 1946155): 0.93 log2
- Ave DE [log2] (C3A treated with steroid) (Clone ID 2025128): 0.90 log2
- Ave DE [log2] (C3A treated with steroid) (Clone ID 2086783): −1.18 log2
- Ave DE [log2] (C3A treated with steroid) (Clone ID 2088104): −1.20 log2
- Ave DE [log2] (C3A treated with steroid) (Clone ID 2095329): −1.37 log2
- Ave DE [log2] (C3A treated with steroid) (Clone ID 2173002): 0.75 log2
- Ave DE [log2] (C3A treated with steroid) (Clone ID 2253102): −1.20 log2
- Ave DE [log2] (C3A treated with steroid) (Clone ID 2269058): −1.15 log2
- Ave DE [log2] (C3A treated with steroid) (Clone ID 2285181): −1.27 log2
- Ave DE [log2] (C3A treated with steroid) (Clone ID 2285521): −1.22 log2
- Ave DE [log2] (C3A treated with steroid) (Clone ID 2287703): −1.24 log2
- Ave DE [log2] (C3A treated with steroid) (Clone ID 2287724): −1.16 log2
- Ave DE [log2] (C3A treated with steroid) (Clone ID 2293496): −0.82 log2
- Ave DE [log2] (C3A treated with steroid) (Clone ID 2294968): −0.94 log2
- Ave DE [log2] (C3A treated with steroid) (Clone ID 2655279): −1.21 log2
- Ave DE [log2] (C3A treated with steroid) (Clone ID 2698777): −1.48 log2
- Ave DE [log2] (C3A treated with steroid) (Clone ID 2703282): −0.86 log2
- Ave DE [log2] (C3A treated with steroid) (Clone ID 2947188): −0.98 log2
- Ave DE [log2] (C3A treated with steroid) (Clone ID 3057272): 0.98 log2
- Ave DE [log2] (C3A treated with steroid) (Clone ID 3115505): −1.10 log2
- Ave DE [log2] (C3A treated with steroid) (Clone ID 3139631): −0.82 log2
- Ave DE [log2] (C3A treated with steroid) (Clone ID 3973887): −1.06 log2
- Ave DE [log2] (C3A treated with steroid) (Clone ID 4089291): −0.77 log2
- Ave DE [log2] (C3A treated with steroid) (Clone ID 4284270): −0.88 log2
- Ave DE [log2] (C3A treated with steroid) (Clone ID 4377432): 0.87 log2
- Ave DE [log2] (C3A treated with steroid) (Clone ID 4884214): −0.77 log2
- Ave DE [log2] (C3A treated with steroid) (Clone ID 5091002): −1.42 log2
- Ave DE [log2] (C3A treated with steroid) (Clone ID 5206821): 0.17 log2
- Ave DE [log2] (C3A treated with steroid) (Clone ID 5426158): −1.03 log2

SMILES: CC#C[C@]1(O)CC[C@H]2[C@@H]3CCC4=CC(=O)CCC4=C3[C@@H](c3ccc(N(C)C)cc3)C[C@@]21C [Mifepristone]
- Ave DE [log2] (C3A treated with steroid) (Clone ID 4543123): −1.20 log2
- Ave DE [log2] (C3A treated with steroid) (Clone ID 5426158): −0.93 log2

SMILES: C#C[C@]1(O)CC[C@H]2[C@@H]3CCC4=Cc5oncc5C[C@]4(C)[C@H]3CC[C@@]21C [danazol]
- Ave DE [log2] (C3A treated with steroid) (Clone ID 1500810): −0.41 log2
- Ave DE [log2] (C3A treated with steroid) (Clone ID 2607834): 0.92 log2
- Ave DE [log2] (C3A treated with steroid) (Clone ID 5038177): 0.74 log2

Source: patent publication US6673549B1, “Genes expressed in C3A liver cell cultures treated with steroids” (Incyte Corporation, priority 2000, dated 2004)
